The format of assay [1] is in vivo, C57BL/6J mice. The following applies: bleomycin mice, treatment from day 7, day 0 to day 22; peptides 30 mg/kg subcutaneously three times a week, nintedanib 100 mg/kg orally daily; FIG. 8b. The source says: Based on results of measuring the change in body weight from day 0 to day 22, the body weight decreased until day 7 after administration of bleomycin, but increased after treatment with the peptide according to the present invention and nintedanib (FIG. 8b), and weight loss due to toxicity of the peptide according to the present invention and nintedanib was not observed.

Assay [2] has as its system animal model in which lung disease was induced with bleomycin. Briefly: Bleomycin-induced lung disease model, lung histology. The following applies: day 22; peptides 30 mg/kg subcutaneously three times a week, nintedanib 100 mg/kg orally daily; peptides compared to NT group and nintedanib group; FIG. 8c. The class given is in vivo, C57BL/6J mice.
Method: C57BL/6J mice (male, 7 weeks old) were purchased from Charles River. Mice were anesthetized by intraperitoneal administration of a mixture of Imalgene (ketamine, 100 mg/kg)/Rompun (xylazine, 20 mg/kg), and a total of 50 µl of bleomycin sulfate (1.45 mg/kg, MBcell, CA, USA) was injected intratracheally once, and saline was injected intratracheally in the normal group (day 0). On day 7, mice were divided into groups, each consisting of eight. PBS (NT), SEQ ID NO: 1 (30 mg/kg), and SEQ ID NO: 2 (30 mg/kg) were administered subcutaneously three times a week, and nintedanib (Fluorochem Ref = 050741, 100 mg/kg) was administered orally daily. Each of the peptides of SEQ ID NO: 1 and SEQ ID NO: 2 was administered after dissolution in water for injection, and nintedanib was administered after mixing with water containing 0.5% hydroxyethylcellulose (Sigma; lot BCBV5033) and 0.01% Tween 80 (Sigma; lot BCBR6211V). While administering the drug for 21 days, body weight was measured every 2 days, and whether there were other clinical symptoms were checked.
After mice were sacrificed with isoflurane on day 22, lung tissue was excised therefrom and histological analysis was performed. […]
In order to quantify the fibrotic change, the area of the red (fibrotic portion) was quantified in the sample stained with Sirius Red.

In the case of `COC(=O)c1ccc2c(c1)NC(=O)/C2=C(\Nc1ccc(N(C)C(=O)CN2CCN(C)CC2)cc1)c1ccccc1` [nintedanib], the “change in body weight” value in assay [1] is reported as “increased”. Further, the “fibrous deposition in the lungs (Sirius Red and hematoxylin/phloxine staining, microscopy)” value in assay [2] is on record as “some therapeutic effect, but a lot of deposited fibrous tissue was still observed”.

These data come from patent EP4813464A2, “PEPTIDE FOR PREVENTING AND TREATING FIBROSIS” (priority 2021, dated 2022).
